Experimental data from patent publication US6399618B1, “Compositions and methods for modulating sexual activity” (priority 1997, dated 2002).
Where a name gives a salt, the structure may show the parent alone. Marks after values point to notes of the source that are not given here.

Experiments:
[1] = system: noradrenaline pre-contracted rabbit CC; assay: Direct action on penile erection: tone of corpus cavernosal muscle strips in organ bath; conditions: concentration from 10^-8 M to 10^-4 M; n=6
Experimental: Corpus cavernosal (CC) muscle strips were prepared from penises obtained from rabbit (n=6). CC strips were dissected free from tunica albungia and mounted in 10 or 25 mL organ baths containing Tyrode solution saturated with 95%O2/5% CO2 mixture.

male rats [2] = assay: Rat sexual behavior, proerectile actions after oral administration; type: in vivo, SD rats
Experimental: Male SD rats (250-300 g) were administered increasing doses of XVIb (30-100 mg/kg in distilled water, per os) or distilled water only via a feeding tube, and observed 5 minutes later for the number of erections (as characterized by penile grooming) over a 60 minute observation period. Six rats at a time, housed singly, were observed by two observers. Treatments were administered in a standard randomized and double blinded manner.

male rats [3] = assay: Rat sexual behavior, proerectile actions (injected); type: in vivo, SD rats; conditions: for Erections/60 minutes / Latency to the first erection: mean±sem; for Erections/60 minutes / Latency to the first erection / Responders: n=10
Experimental: Male SD rats (350-450 g; n=10 per group) were injected with increasing doses of XVIb (4.0-64.0 mg/kg), XVIa (1.0, 4.0 or 16 mg/kg) or saline and observed 5 minutes later, in groups of 5, for the number of erections and the time to the first erection, over a 60 minutes observation period.
In Table 2, the effects of XVIb, XVIa and saline on erection in male rats is indicated. Data is expressed as the mean±sem for 10 test animals. Data marked with an asterisk “*” indicate significant difference from saline (α<0.05) as determined by ANOVA with Tukey test for multiple comparisons.

male rats [4] = assay: Rat procopulatory actions (copulatory behavior with receptive female); type: in vivo, Long-Evans rats
Experimental: Male Long-Evans rats (300-600 g; n=15 per group) were injected with saline or XVIb (1.5-30.5 mg/kg; ip) 5 minutes prior to being paired with a female rat sexually receptive by administration of estradiol benzoate (25 μg; 48 hours prior to testing) and progesterone (1 mg/kg; 4 hours prior to testing). Mount latency, intromission latency, ejaculation latency, mounts, intromissions, ejaculations and post ejaculatory interval were recorded over a 30 minutes observation period.
In Table 3, the effect of compound XVIb on copulatory behavior in male rats is shown. Data are expressed as mean (sem for 15 test animals). Latency is the time in seconds to appearance of that behavior. Ejaculations are the number of such events during 30 minutes of observation. Intromissions are the number of such events before ejaculation. Post ejaculatory interval is the time in seconds from ejaculation on intromission to the first mount of the next copulatory sequence. P values derived from two-tailed t-test for significance between mean values (α<0.05).

male primates = assay: Sexual behavior in male primates, paired observation study (penile response grades); type: in vivo, macaca fascilaris; conditions: 1.0 mg/kg ip; N=3; observed 1 hour
Experimental: Monkeys used for testing were separated from the cluster of cages and treated and observed in pairs in the middle of the housing environment.
N=3 for all drug-treated animals, while N=18 for saline-treated animals. […] Data are expressed as the number of test animals having a particular grade of penile response. Penile responses were scored every 10 sec for 1 hour according to the following scale:
Grade 0=glans are hidden from the view
Grade 1=glans are clearly visible
Grade 2=penis is extended
Grade 4=erection with masturbation
Grade 5=erection with masturbation and ejaculation

male rats [5] = assay: Rat behavior, blood chemistry and body temperature; type: in vivo, SD rats
Experimental: Male SD rats (350-450 g; n=15 per group) were injected with a single dose of XVIb (16 mg/kg, ip) and saline and observed 5 minutes later, in pairs, for erections, ejaculation, movement and grooming over a 60 minute observation period. Rectal temperature was recorded before drug administration and 1 hour after drug administration. At the end of experiments rats were decapitated and trunk blood was collected for RIA analysis of serum cortisol and prolactin levels.

[6] = 15 mg/kg ip, n=15, 30 minutes observation
[7] = 16 mg/kg ip, RIA of trunk blood at end of experiment

## CN1CCN(C(=O)Cc2ccc3ccccc3c2)CC1 [Compound XVIb, 1-Methyl-4(2-naphthaleneacetyl)piperazine monohydrochloride]
[1]
  effect on tone of noradrenaline pre-contracted rabbit CC: failed to reduce tone
Male rats [2]; 30 mg/kg p.o.
  Responders: 100%
  maximum number of erections/rat: 3 h⁻¹
Male rats [2]; 100 mg/kg p.o.
  Responders: 100%
  maximum number of erections/rat: 5 h⁻¹
Male rats [3]; 4.0 mg/kg
  Erections/60 minutes: 2.1 ± 0.4
  Latency to the first erection: 2390 ± 238 s
  Responders: 100%
Male rats [3]; 8.0 mg/kg
  Erections/60 minutes: 5.1 ± 0.6* #
  Latency to the first erection: 1299 ± 214 s
  Responders: 100%
Male rats [3]; 16.0 mg/kg
  Erections/60 minutes: 7.7 ± 0.4* #
  Latency to the first erection: 654 ± 108* sec
  Responders: 100%
Male rats [3]; 32.0 mg/kg
  Erections/60 minutes: 2.5 ± 0.2
  Latency to the first erection: 1046 ± 64* sec
  Responders: 100%
Male rats [3]; 64.0 mg/kg
  Erections/60 minutes: 2.7 ± 0.5
  Latency to the first erection: 3319 ± 170* sec
  Responders: 100%
Male rats [3]; 60 minutes observation
  effect on penile erections (in words): produced erections in rats in a bell shaped dose-response fashion
Male rats [3]; doses 4.0-64.0 mg/kg
  dose at which the maximal effect on erections was observed: 16 mg/kg
  dose with minimal time to the first erection: 16 mg/kg
Male rats [4]; 7.5 mg/kg and 30.5 mg/kg only, data is not shown
  number of intromissions (in words): reducing the number of intromissions
Male rats [4]; 15 mg/kg ip, n=15
  Post ejaculatory interval: 426.6 ± 28.5 s
Male rats [4]; [6]
  Ejaculation latency: 330.9 ± 31.5 s
  Intromission latency: 405.1 ± 88.0 s
  Mount latency: 204.5 ± 31.9 s
Male rats [4]; 15 mg/kg ip, n=15, before ejaculation
  Intromissions: 6.9 ± 0.7
Male rats [4]; 15 mg/kg ip, n=15, during 30 minutes of observation
  ejaculations: 4.7 ± 0.2
Male rats [4]; any of doses tested (1.5-30.5 mg/kg ip)
  Post ejaculatory interval (in words): not affected
Male rats [4]; doses above and below 15 mg/kg
  copulatory behaviors (in words): without significant effects
Male primates
  number of test animals having Grade 0 penile response (glans are hidden from the view): 1
  number of test animals having Grade 1 penile response (glans are clearly visible): 2
  number of test animals having Grade 2 penile response (penis is extended): 2
  number of test animals having Grade 3 penile response (full erection): 2
  number of test animals having Grade 4 penile response (erection with masturbation): 1
  number of test animals having Grade 5 penile response (erection with masturbation and ejaculation): 0
Male rats [5]; [7]
  Serum cortisol: not significantly altered
  Serum prolactin: not significantly altered
Male rats [5]; 16 mg/kg ip, n=15
  Rearing: 77±5.9 rears/60 minutes
  erections: 5.6±0.7 erections/60 minutes
  locomotion: 20.7±3.3 moves
  non-penile grooming: 22±4.8 grooms/60 minutes
  penile grooming: 12.1±3.3 grooms/60 minutes
Male rats [5]; 16 mg/kg ip, n=15, 60 minute observation
  ejaculations: 1.8±0.1 ejaculations
Male rats [5]; 16 mg/kg, before and 1 hour after drug administration
  Rectal temperature: not significantly altered
